Several values for one entry are separate records, joined by “and”; a condition that tells them apart may be missing. Equal entries are not always repeated.
Experiments:
[1] = target: T1, PPM1D1–420 (Homo sapiens, UniProt O15297); experiment: FDP (fluorescein diphosphate) enzymatic assay; type: biochemical; parameters: FDP assay rate (Fig 3B): unit not given here; settings: for FDP assay rate (Fig 3B): triplicates; for FDP Assay, signal relative to 0 nM GSK (=100): PPM1D1-420, individual runs, listed as GSK
T1 construct: PPM1D1–420 was PCR-amplified from the synthesized gene with BsaI sites; His(6)-SUMO (N, cleaved yes); made in house; host or cells: E. coli BL21 (DE3)
T1 sequence (O15297 1-420): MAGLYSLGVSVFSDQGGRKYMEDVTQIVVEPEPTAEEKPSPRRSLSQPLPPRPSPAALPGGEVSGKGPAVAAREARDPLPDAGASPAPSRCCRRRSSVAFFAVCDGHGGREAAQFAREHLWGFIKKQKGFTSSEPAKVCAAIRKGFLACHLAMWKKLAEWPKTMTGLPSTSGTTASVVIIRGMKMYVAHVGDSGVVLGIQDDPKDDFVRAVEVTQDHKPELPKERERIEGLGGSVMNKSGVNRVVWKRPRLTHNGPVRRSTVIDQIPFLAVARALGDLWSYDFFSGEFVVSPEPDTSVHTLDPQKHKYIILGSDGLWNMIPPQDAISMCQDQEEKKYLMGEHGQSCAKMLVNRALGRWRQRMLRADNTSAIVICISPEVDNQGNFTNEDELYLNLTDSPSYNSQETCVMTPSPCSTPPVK
Protocol: The FDP assay was adapted from reported protocol with minor modifications. Fluorescein diphosphate tetra-ammonium salt (CAS 217305-49-2) was purchased from AAT Bioquest (Cat No.11600). The assay was carried out on a 384-well plate (Corning Cat No.3575) with assay buffer containing 50 mM Tris (pH 7.5), 50 mM NaCl, 30 mM MgCl2, 0.01% tween 20, and 2% DMSO. Reactions were initiated with the addition of FDP to a solution containing wild-type PPM1D or one of its variants, to a final concentration of 5 nM for PPM1D and 100 μM for FDP (or as indicated in Kcat/KM measurements). A fluorescent signal was detected on a Spectramax microplate reader (485/530 nm) for the next 15 min at room temperature with an interval for data collection of 45 s. For the IC50 measurement, the compound was pre-incubated with PPM1D for 1 h before addition of the substrate.

[2] = target: T1, PPM1D1–420; experiment: Differential scanning fluorimetry (DSF); type: binding; parameters: key to DSF Trial 1 (Tm) / DSF Trial 2 (Tm) / DSF Trial 3 (Tm) / DSF average (Tm) / DSF melting temperature with GSK2830371 / DSF melting temperature with GSK2830371, Average: melting temperature Tm in °C
Protocol: The purified protein constructs were mixed in the assay buffer containing 25 mM HEPES pH 7.5, 10 mM MgCl2, 150 mM NaCl. The sample preparation for the DSF assay included incubating the protein constructs (final concentration 0.2–0.4 mg/mL) with either DMSO alone (control) or with 40 µM GSK2830371 for 30 min before the addition of the Sypro orange dye (final concentration 10×). The final reaction volume of 10 µL was pipetted into a 384 multi-well clear plate (Light Cycler 480), sealed using a foil and spun down at 1000 × g for 2 min. The fluorescence emission intensity of the Sypro Orange dye was monitored in a LightCycler-480 instrument by running the Protein Melt program. The program was run in a continuous acquisition mode from 25 °C to 95 °C with a ramp rate of 0.06 °C/s (with 10 acquisitions/°C). The data (first derivative of the fluorescence signal as a function of temperature) was analyzed using the LightCycler-480 software for measuring the Tm values with and without the compound. A separate control with buffer alone and buffer with compound was run in the same plate to subtract out the potential interactions of the buffer components and/or the compound with the dye.

[3] = target: T1, PPM1D1–420; experiment: Differential scanning calorimetry (DSC); type: binding
Protocol: DSC thermograms were recorded in MicroCal DSC from Malvern with an autosampler. For DSC experiments the purified protein constructs were extensively dialyzed against 25 mM HEPES pH 7.5, 10 mM MgCl2, 150 mM NaCl and 1 mM TCEP. The experiments were performed using 0.4 mg/mL concentration of wild-type or mutant protein (8.5–8.9 µM), with and without GSK2830371 compound at 40 µM and 2% DMSO (v/v). The respective reference scans were run under identical DSC set up conditions and subtracted from each sample scan. The program was run in a continuous acquisition mode from 25 °C to 90 °C at a rate of 120 °C/h The heat capacity curves and midpoint temperature (Tm) were analyzed using Origin 7.0 software.

[4] = Sup Fig 2D, protein with GSK, average of trials
[5] = source data Fig 3C, with GSK, in °C (unit assumed)

Structure (SMILES): Cc1ncc(Cl)cc1NCc1ccc(C(=O)N[C@@H](CC2CCCC2)C(=O)NC2CC2)s1 [GSK2830371]
- mode of inhibition ([1]; Michaelis–Menten kinetics, FDP hydrolysis): noncompetitive inhibitor
- IC50 ([1]; PPM1D1–420, compound pre-incubated 1 h): ~6 nM
- FDP assay rate (Fig 3B) ([1]; [FDP] 25 uM, inhibitor 0.98 (unit not given)): 0.1081 and 0.1018 and 0.09496
- FDP assay rate (Fig 3B) ([1]; [FDP] 25 uM, inhibitor 1.95 (unit not given)): 0.0895 and 0.07795 and 0.08008
- FDP assay rate (Fig 3B) ([1]; [FDP] 25 uM, inhibitor 3.9 (unit not given)): 0.06795 and 0.05591 and 0.06219
- FDP assay rate (Fig 3B) ([1]; [FDP] 25 uM, inhibitor 7.8 (unit not given)): 0.03815 and 0.02398 and 0.0308
- FDP assay rate (Fig 3B) ([1]; [FDP] 25 uM, inhibitor 15.6 (unit not given)): 0.01708 and 0.01354 and 0.01271
- FDP assay rate (Fig 3B) ([1]; [FDP] 50 uM, inhibitor 0.98 (unit not given)): 0.154 and 0.1613 and 0.1584
- FDP assay rate (Fig 3B) ([1]; [FDP] 50 uM, inhibitor 1.95 (unit not given)): 0.1193 and 0.1343 and 0.126
- FDP assay rate (Fig 3B) ([1]; [FDP] 50 uM, inhibitor 3.9 (unit not given)): 0.09839 and 0.1118 and 0.09908
- FDP assay rate (Fig 3B) ([1]; [FDP] 50 uM, inhibitor 7.8 (unit not given)): 0.04672 and 0.06633 and 0.05157
- FDP assay rate (Fig 3B) ([1]; [FDP] 50 uM, inhibitor 15.6 (unit not given)): 0.02583 and 0.03504 and 0.03088
- FDP assay rate (Fig 3B) ([1]; [FDP] 100 uM, inhibitor 0.98 (unit not given)): 0.2227 and 0.2316 and 0.2315
- FDP assay rate (Fig 3B) ([1]; [FDP] 100 uM, inhibitor 1.95 (unit not given)): 0.1741 and 0.1931 and 0.1914
- FDP assay rate (Fig 3B) ([1]; [FDP] 100 uM, inhibitor 3.9 (unit not given)): 0.1254 and 0.1375 and 0.1433
- FDP assay rate (Fig 3B) ([1]; [FDP] 100 uM, inhibitor 7.8 (unit not given)): 0.08834 and 0.102 and 0.1128
- FDP assay rate (Fig 3B) ([1]; [FDP] 100 uM, inhibitor 15.6 (unit not given)): 0.04867 and 0.06283 and 0.04506
- FDP assay rate (Fig 3B) ([1]; [FDP] 100 uM, inhibitor 31.3 (unit not given)): 0.02471 and 0.03171 and 0.02136
- FDP assay rate (Fig 3B) ([1]; [FDP] 200 uM, inhibitor 0.98 (unit not given)): 0.2541 and 0.2837 and 0.2718
- FDP assay rate (Fig 3B) ([1]; [FDP] 200 uM, inhibitor 1.95 (unit not given)): 0.1754 and 0.2253 and 0.2249
- FDP assay rate (Fig 3B) ([1]; [FDP] 200 uM, inhibitor 3.9 (unit not given)): 0.1214 and 0.1628 and 0.1643
- FDP assay rate (Fig 3B) ([1]; [FDP] 200 uM, inhibitor 7.8 (unit not given)): 0.119 and 0.111 and 0.098
- FDP assay rate (Fig 3B) ([1]; [FDP] 200 uM, inhibitor 15.6 (unit not given)): 0.06395 and 0.07091 and 0.07759
- FDP assay rate (Fig 3B) ([1]; [FDP] 200 uM, inhibitor 31.3 (unit not given)): 0.03445 and 0.04201 and 0.04948
- FDP assay rate (Fig 3B) ([1]; [FDP] 200 uM, inhibitor 62.5 (unit not given)): 0.03178 and 0.03296 and 0.03025
- FDP assay rate (Fig 3B) ([1]; [FDP] 400 uM, inhibitor 0.98 (unit not given)): 0.3661 and 0.3766 and 0.3211
- FDP assay rate (Fig 3B) ([1]; [FDP] 400 uM, inhibitor 1.95 (unit not given)): 0.2969 and 0.3135 and 0.2543
- FDP assay rate (Fig 3B) ([1]; [FDP] 400 uM, inhibitor 3.9 (unit not given)): 0.2182 and 0.2333 and 0.1765
- FDP assay rate (Fig 3B) ([1]; [FDP] 400 uM, inhibitor 7.8 (unit not given)): 0.2094 and 0.221 and 0.1442
- FDP assay rate (Fig 3B) ([1]; [FDP] 400 uM, inhibitor 15.6 (unit not given)): 0.1122 and 0.1116 and 0.1013
- FDP assay rate (Fig 3B) ([1]; [FDP] 400 uM, inhibitor 31.3 (unit not given)): 0.06577 and 0.07799 and 0.08598
- FDP assay rate (Fig 3B) ([1]; [FDP] 400 uM, inhibitor 62.5 (unit not given)): 0.04782 and 0.06273 and 0.0378
- FDP assay rate (Fig 3B) ([1]; [FDP] 400 uM, inhibitor 125 (unit not given)): 0.03598 and 0.04023 and 0.04026
- FDP Assay, signal relative to 0 nM GSK (=100) ([1]; [GSK] 0.292969 nM): 86.8743 and 86.4893
- FDP Assay, signal relative to 0 nM GSK (=100) ([1]; [GSK] 0.585938 nM): 87.0301 and 86.6545
- FDP Assay, signal relative to 0 nM GSK (=100) ([1]; [GSK] 1.17188 nM): 79.2709 and 79.2522
- FDP Assay, signal relative to 0 nM GSK (=100) ([1]; [GSK] 2.34375 nM): 68.8335 and 60.4469
- FDP Assay, signal relative to 0 nM GSK (=100) ([1]; [GSK] 4.6875 nM): 48.948 and 39.1972
- FDP Assay, signal relative to 0 nM GSK (=100) ([1]; [GSK] 9.375 nM): 35.4075 and 36.7435
- FDP Assay, signal relative to 0 nM GSK (=100) ([1]; [GSK] 18.75 nM): 24.9745 and 29.6638
- FDP Assay, signal relative to 0 nM GSK (=100) ([1]; [GSK] 37.5 nM): 10.1395 and 7.848
- FDP Assay, signal relative to 0 nM GSK (=100) ([1]; [GSK] 75 nM): 7.727 and 7.844
- FDP Assay, signal relative to 0 nM GSK (=100) ([1]; [GSK] 150 nM): 2.646 and -0.6809
- FDP Assay, signal relative to 0 nM GSK (=100) ([1]; [GSK] 300 nM): 0.03588 and 0.07574
- DSF melting temperature with GSK2830371, Average ([2]; PPM1D 1-420, average of 4 trials, in °C (unit assumed)): 59.7917
- DSF melting temperature with GSK2830371 ([2]; PPM1D 1-420, individual trials, in °C (unit assumed)): 59.846 and 59.6596 and 59.8596 and 59.8015
- ΔTm at 40 µM ([2]; PPM1D1–420, 40 µM compound, read-out: thermal shift by DSF): ~8 °C
- DSF Trial 1 (melting temperature) ([2]; Sup Fig 2D, protein with GSK vs WT (DMSO), trial 1): 59.84 ˚C
- DSF Trial 2 (melting temperature) ([2]; Sup Fig 2D, protein with GSK vs WT (DMSO), trial 2): 59.65 ˚C
- DSF Trial 3 (melting temperature) ([2]; Sup Fig 2D, protein with GSK vs WT (DMSO), trial 3): 59.85 ˚C
- DSF Average (melting temperature) [2, 4]: 59.78 ˚C
- DSF average (Tm) ([2]; source data Fig 3C, with GSK, column head empty, in °C (unit assumed)): 59.78
- DSF Trial 1 (Tm) [2, 5]: 59.84
- DSF Trial 2 (Tm) [2, 5]: 59.65
- DSF Trial 3 (Tm) [2, 5]: 59.85
- ΔTm at 40 µM ([3]; PPM1D1–420, 40 µM compound, read-out: thermal shift by DSC): 8 °C
- DSC Trial 1 (melting temperature) ([3]; Sup Fig 2D, protein with GSK vs WT alone, trial 1): 62.26 ˚C
- DSC Trial 2 (melting temperature) ([3]; Sup Fig 2D, protein with GSK vs WT alone, trial 2): 62.33 ˚C
- DSC Trial 3 (melting temperature) ([3]; Sup Fig 2D, protein with GSK vs WT alone, trial 3): 62.14 ˚C
- DSC Average (melting temperature) [3, 4]: 62.2433 ˚C
- DSC Average (Tm) [3, 5]: 62.2433
- DSC Trial 1 (Tm) [3, 5]: 62.26
- DSC Trial 2 (Tm) [3, 5]: 62.33
- DSC Trial 3 (Tm) [3, 5]: 62.14

From publication PMC9246869, “Allosteric inhibition of PPM1D serine/threonine phosphatase via an altered conformational state” (Nature Communications, 2022)
